Key:
Type in all cases: in vivo
[1] = test system: soybean (Glycine max Merr.), GLXMA; assay: Test Example 2: post-emergence (foliage treatment) herbicidal activity (growth controlling degree); conditions: 0.2-0.3 leaf stage
Text: (§1) Upland field soil was put into a 1/170,000 ha pot, and seeds of various plants were sown. Then, when the plants reached predetermined leaf stages [I. barnyardgrass (Echinochloa crus-galli L.), ECHCG: 1.8-2.4 leaf stage, 2. crabgrass (Digitaria sanguinalis L.), DIGSA: 1.5-2.2 leaf stage, 3. green foxtail (Setaria viridis L.), SETVI: 1.7-2.5 leaf stage, 4. redroot pigweed (Amaranthus retroflexus L.), AMARE: 0.1-0.3 leaf stage, 5. prickly sida (Sida spinosa L.), SIDSP: 0.3-0.5 leaf stage, 6. velvetleaf (Abutilon theophrasti), ABUTH: 0.3-0.4 leaf stage, 7. common cocklebur (Xanthium strumarium L.), XANST: 0.2-0.6 leaf stage, 8. rice (Oryza sativa L.), ORYSA: 1.6-2.2 leaf stage, 9. wheat (Triticum aestivum L.), TRZAX: 2.8 leaf stage, 10. corn (Zea mays L.), ZEAMX: 2.2-2.5 leaf stage, 11. soybean (Glycine max Merr.), GLXMA: 0.2-0.3 leaf stage], a wettable powder or emulsifiable concentrate having the compound of the present invention formulated in accordance with a usual formulation method, was weighed so that the active ingredient would be a predetermined amount, and diluted with water in an amount of 500 L/ha. To the diluted solution, 0.1%(v/v) of an agricultural spreader was added. The herbicide adjusted was applied by a small size sprayer for foliage treatment. On the […] day after the application of the herbicide, the growth of the respective plants was visually observed, and the herbicidal effects were evaluated by growth controlling degrees (%) ranging from 0 (equivalent to the untreated control) to 100 (complete kill), whereby the results shown in Table 12, were obtained. Compound Nos. in Table 12 correspond to Compound Nos. in Table 1 to 7 given hereinbefore.

[2] = test system: velvetleaf (Abutilon theophrasti), ABUTH; assay: as above; conditions: 0.3-0.4 leaf stage
Text: as §1

[3] = test system: redroot pigweed (Amaranthus retroflexus L.), AMARE; assay: as above; conditions: 0.1-0.3 leaf stage
Text: as §1

[4] = test system: common cocklebur (Xanthium strumarium L.), XANST; assay: as above; conditions: Xanthium strumarium, 504 h, 31 g a.i./ha, 0.2-0.6 leaf stage
Text: as §1

[5] = test system: rice (Oryza sativa L.), ORYSA; assay: as above; conditions: 1.6-2.2 leaf stage
Text: as §1

[6] = test system: green foxtail (Setaria viridis L.), SETVI; assay: as above; conditions: 1.7-2.5 leaf stage
Text: as §1

[7] = test system: prickly sida (Sida spinosa L.), SIDSP; assay: as above; conditions: 0.3-0.5 leaf stage
Text: as §1

[8] = test system: corn (Zea mays L.), ZEAMX; assay: as above; conditions: 2.2-2.5 leaf stage
Text: as §1

[9] = test system: crabgrass (Digitaria sanguinalis L.), DIGSA; assay: as above; conditions: 1.5-2.2 leaf stage
Text: as §1

[10] = test system: barnyardgrass (Echinochloa crus-galli L.), ECHCG; assay: as above; conditions: 1.8-2.4 leaf stage
Text: as §1

[11] = test system: barnyardgrass (Echinochloa oryzicola: ECHOR); assay: Test Example 3: water application herbicidal activity, paddy (growth controlling degree); conditions: rate 63 g a.i./ha, water application under submerged condition, paddy pot, barnyardgrass at 0.5 leaf stage
Text: (§2) Paddy field soil was put into a {fraction (1/1,000,000)} ha pot, and seeds of barnyardgrass (Echinochloa oryzicola: ECHOR) and japanese bulrush (Scirpus juncoides: SCPJO) were sown and slightly covered with soil. Then the pot was left to stand still in a greenhouse in a state where the depth of flooding water was from 0.5 to 1 cm, and one day later, tubers of japanese ribbon wapato (Sagittaria pygmaea: SAGPY) were planted. Thereafter, the depth of flooding water was maintained at a level of from 3 to 4 cm, and when barnyardgrass and japanese bulrush reached a 0.5 leaf stage, an aqueous diluted solution of a wettable powder or emulsifiable concentrate having the compound of the present invention formulated in accordance with a usual formulation method, was uniformly applied under submerged condition by a pipette so that the dose of the active ingredient would be at a predetermined level. On the other hand, paddy filed soil was put into a {fraction (1/1,000,000)} ha pot and puddled and leveled, and the depth of flooding water was from 3 to 4 cm. One day later, rice (Oryza sativa L.: ORYSA) of 2 leaf stage was transplanted in a depth of 3 cm. On the 4th day after the transplantation, the compound of the present invention was applied in the same manner as described above. On the 14th day after the application of the herbicide, the growth of barnyardgrass, japanese burlush and japanese ribbon wapato was visually observed and on the 21st day after the application of the herbicide, the growth of rice was visually observed, and the herbicidal effects were evaluated by growth controlling degrees (%) ranging from 0 (equivalent to the untreated control) to 100 (complete kill), whereby the results shown in Table 13, were obtained. Compound Nos. in Table 13 correspond to Compound Nos. in Table 1 to 7 given hereinbefore.

[12] = test system: japanese bulrush (Scirpus juncoides: SCPJO); assay: as above; conditions: rate 63 g a.i./ha, water application under submerged condition, paddy pot, japanese bulrush at 0.5 leaf stage
Text: as §2

[13] = test system: japanese ribbon wapato (Sagittaria pygmaea: SAGPY); assay: as above; conditions: rate 63 g a.i./ha; water application under submerged condition, paddy pot; tubers of japanese ribbon wapato planted
Text: as §2

[14] = test system: rice (Oryza sativa L.: ORYSA); assay: as above; conditions: rate 63 g a.i./ha, paddy pot, rice of 2 leaf stage transplanted, treated on the 4th day after transplantation
Text: as §2

[15] = test system: redroot pigweed (Amaranthus retroflexus L.): AMARE; assay: Test Example 1: pre-emergence herbicidal activity (growth controlling degree); conditions: 500 g a.i./ha, 20th to 21st day after application
Text: (§3) Upland field soil was put into a 1/170,000 ha pot, and seeds of various plants [1. barnyardgrass (Echinochloa crus-galli L.): ECHCC, 2. crabgrass (Digitaria sanguinalis L.): DIGSA, 3. green foxtail (Setaria viridis L.): SETVI, 4. redroot pigweed (Amaranthus retroflexus L.): AMARE, 5. prickly sida (Sida spinosa L.): SIDSP, 6. velvetleaf (Abutilon theophrasti): ABUTH, 7. common cocklebur (Xanthium strumarium L.): XANST, 8. rice (Oryza sativa L.): ORYSA, 9. wheat (Triticum aestivum L.): TRZAX, 10. corn (Zea mays L.): ZEAMX, 11. soybean (Glycine max Merr.): GLXMA] were sown. Then, one day after the sowing, a wettable powder or emulsifiable concentrate having the compound of the present invention formulated in accordance with a usual formulation method, was weighed so that the active ingredient would be a predetermined amount, and diluted with water in an amount of 500 L/ha. The herbicide adjusted was applied by a small size sprayer for pre-emergence treatment. On the 20th to 21st day after the application of the herbicide, the growth of the respective plants was visually observed, and the herbicidal effects were evaluated by growth controlling degrees (%) ranging from 0 (equivalent to the untreated control) to 100 (complete kill), whereby the results shown in Table 11, were obtained. Compound Nos. in Table 11 correspond to Compound Nos. in Table 1 to 7 given hereinbefore.

[16] = test system: corn (Zea mays L.): ZEAMX; assay: as above; conditions: 500 g a.i./ha, 20th to 21st day after application
Text: as §3

[17] = test system: crabgrass (Digitaria sanguinalis L.): DIGSA; assay: as above; conditions: 500 g a.i./ha, 20th to 21st day after application
Text: as §3

[18] = test system: velvetleaf (Abutilon theophrasti): ABUTH; assay: as above; conditions: 500 g a.i./ha, 20th to 21st day after application
Text: as §3

[19] = test system: prickly sida (Sida spinosa L.): SIDSP; assay: as above; conditions: 500 g a.i./ha, 20th to 21st day after application
Text: as §3

[20] = test system: rice (Oryza sativa L.): ORYSA; assay: as above; conditions: 500 g a.i./ha, 20th to 21st day after application
Text: as §3

[21] = test system: barnyardgrass (Echinochloa crus-galli L.): ECHCC; assay: as above; conditions: 500 g a.i./ha, 20th to 21st day after application
Text: as §3

[22] = test system: green foxtail (Setaria viridis L.): SETVI; assay: as above; conditions: 500 g a.i./ha, 20th to 21st day after application
Text: as §3

[23] = test system: common cocklebur (Xanthium strumarium L.): XANST; assay: as above; conditions: 500 g a.i./ha, 20th to 21st day after application
Text: as §3

Cn1nc(-c2c(F)cc(Cl)c3c2CCC(C)(C)O3)c(Cl)c1OC(F)F [Compound 1-40, 4-chloro-3-(8-chloro-6-fluoro-3,4-dihydro-2,2-dimethyl-2H-1-benzopyran-5-yl)-5-(difluoromethoxy)-1-methyl-1H-pyrazole]
pest or weed control at 31 g/ha ([1]; Glycine max, 504 h, 31 g a.i./ha): 60%
pest or weed control at 31 g/ha ([2]; Abutilon theophrasti, 504 h, 31 g a.i./ha): 100%
growth controlling degree, AMARE ([3]; 31 g a.i./ha): 100%
pest or weed control at 31 g/ha [4]: 100%
plant injury at 31 g/ha ([5]; Oryza sativa, 504 h, 31 g a.i./ha): 70%
pest or weed control at 31 g/ha ([6]; Setaria viridis, 504 h, 31 g a.i./ha): 100%
pest or weed control at 31 g/ha ([7]; Sida spinosa, 504 h, 31 g a.i./ha): 100%
plant injury at 31 g/ha ([8]; Zea mays, 504 h, 31 g a.i./ha): 70%
pest or weed control at 31 g/ha ([9]; Digitaria sanguinalis, 504 h, 31 g a.i./ha, read-out: growth controlling degree, DIGSP): 100%
pest or weed control at 31 g/ha ([10]; Echinochloa crus-galli, 504 h, 31 g a.i./ha): 100%
pest or weed control at 63 g/ha ([11]; Echinochloa oryzicola, 336 h): 100%
pest or weed control at 63 g/ha ([12]; Schoenoplectiella juncoides, 336 h): 100%
Water Application Herbicidal Activity SAGPY (growth controlling degree) [13]: 95%
pest or weed control at 63 g/ha ([14]; Oryza sativa, 504 h): 35%

CC1CCc2c(c(Cl)cc(F)c2-c2ncc(C(F)(F)F)cc2Cl)O1 (centres unmarked) [Compound 7-4]
growth controlling degree, AMARE [15]: 100%
growth controlling degree, ZEAMX [16]: 40%
growth controlling degree, DIGSP [17]: 100%
growth controlling degree, ABUTH [18]: 100%
growth controlling degree, SIDSP [19]: 100%
growth controlling degree, ORYSA [20]: 30%
growth controlling degree, ECHCG [21]: 70%
growth controlling degree, SETVI [22]: 100%
growth controlling degree, XANST [23]: 10%
growth controlling degree, GLXMA ([1]; 63 g a.i./ha): 50%
growth controlling degree, ABUTH ([2]; 63 g a.i./ha): 100%
growth controlling degree, AMARE ([3]; 63 g a.i./ha): 95%
growth controlling degree, ORYSA ([5]; 63 g a.i./ha): 60%
growth controlling degree, SETVI ([6]; 63 g a.i./ha): 80%
growth controlling degree, SIDSP ([7]; 63 g a.i./ha): 80%
growth controlling degree, ZEAMX ([8]; 63 g a.i./ha): 70%
growth controlling degree, DIGSP ([9]; 63 g a.i./ha): 50%
growth controlling degree, ECHCG ([10]; 63 g a.i./ha): 50%
Water Application Herbicidal Activity ECHOR (growth controlling degree) [11]: 70%
Water Application Herbicidal Activity SCPJO (growth controlling degree) [12]: 90%
Water Application Herbicidal Activity ORYSA (growth controlling degree) [14]: 0%

Reference: patent US20040157738A1, “Novel oxygen containing fused cyclic derivatives and herbicidal, desiccant and defoliate compositions containing them” (ISHIHARA SANGYO KAISHA, LTD., priority 2003, published 2004)
